Laboratory results published in patent publication US20210395256A1, “TYROSINE KINASE INHIBITORS, COMPOSITIONS AND METHODS THERE OF” (Betta Pharmaceuticals Co., Ltd., priority 2018, published 2021).
Counter-ions that a name gives are not always drawn. Like-named read-outs stand apart in the source and are kept apart here.

Experiments:
[1] = target: TrkA kinase (Homo sapiens, UniProt P04629); assay: TrkA kinase assay (mobility shift assay); assay type: biochemical; details: read-out: Trk A Kinase IC50
Chain of TrkA kinase (P04629 33-796): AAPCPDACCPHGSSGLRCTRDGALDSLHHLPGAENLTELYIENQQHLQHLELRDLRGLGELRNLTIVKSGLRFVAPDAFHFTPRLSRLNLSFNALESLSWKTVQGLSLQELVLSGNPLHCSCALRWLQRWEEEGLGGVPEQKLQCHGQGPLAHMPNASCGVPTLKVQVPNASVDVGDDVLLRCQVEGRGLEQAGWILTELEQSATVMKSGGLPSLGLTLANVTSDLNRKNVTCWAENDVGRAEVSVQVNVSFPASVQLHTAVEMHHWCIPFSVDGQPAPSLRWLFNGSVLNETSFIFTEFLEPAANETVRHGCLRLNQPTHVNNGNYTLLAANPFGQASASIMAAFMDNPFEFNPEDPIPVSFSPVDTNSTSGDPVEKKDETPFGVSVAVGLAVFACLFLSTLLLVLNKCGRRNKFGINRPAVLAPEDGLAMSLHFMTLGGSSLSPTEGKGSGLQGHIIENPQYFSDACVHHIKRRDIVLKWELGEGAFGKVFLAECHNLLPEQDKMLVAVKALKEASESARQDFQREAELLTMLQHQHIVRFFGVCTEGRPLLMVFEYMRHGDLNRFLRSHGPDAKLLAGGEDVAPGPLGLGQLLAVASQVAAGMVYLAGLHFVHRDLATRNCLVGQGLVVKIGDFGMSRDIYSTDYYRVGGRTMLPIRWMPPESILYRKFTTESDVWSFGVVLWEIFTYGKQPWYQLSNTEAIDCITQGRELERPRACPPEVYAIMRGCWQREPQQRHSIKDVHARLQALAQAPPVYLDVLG
Outline: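 Caliper mobility-shift readout of FAM-labelled peptide conversion by TrkA in 50 mM HEPES pH 7.5, 0.0015% Brij-35, with ATP; enzyme preincubated 10 min with compound (10-point dilution), reaction at 28 °C, EDTA stop. Inhibition relative to DMSO and no-enzyme controls; IC50 by four-parameter fit.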

[2] = Liver microsomes metabolic stability assay, human; assay type: in vitro ADME; details: human liver microsomes 0.5 mg/mL, 37° C.
Method: (§1) Example 203 Liver Microsomes Metabolic Stability Assay
(§2) Pooled human liver microsomes (Cat. 452117) were purchased from Corning. Pooled male rat liver microsomes (Cat. R1000) and pooled male mouse liver microsomes (Cat. M1000) were purchased from XENOTECH. Microsomes were stored at −80° C.
(§3) 1) Make a master solution containing phosphate buffer, ultra-pure H2O and MgCl2 solution according to Table 14.
(§4) 2) Two separated experiments were performed as follows.
(§5) a) With NADPH: 10 μL of 20 mg/mL liver microsomes and 40 μL of 10 mM NADPH were added to the incubations. The final concentrations of microsomes and NADPH were 0.5 mg/mL and 1 mM, respectively.
(§6) b) Without NADPH: 10 μL of 20 mg/mL liver microsomes and 40 μL of ultra-pure H2O were added to the incubations. The final concentration of microsomes was 0.5 mg/mL.
(§7) 3) The reaction was started with the addition of 4 μL test compounds solutions or control compound solution (verapamil) at the final concentration of 2 μM and carried out at 37° C.
(§8) 4) Aliquots of 50 μL were taken from the reaction solution at 0, 15, 30, 45 and 60 min. The reaction solutions were stopped by the addition of 4 volumes of cold acetonitrile with 1S (100 nM alprazolam, 200 nM caffeine, 200 nM labetalol and 2 μM ketoprofen). Samples were centrifuged at 3,220 g for 40 minutes. Aliquot of 100 μL of the supernatant was mixed with 100 μL of ultra-pure H2O and then used for LC-MS/MS analysis. All experiments were performed in duplicate.
(§9) The slope value, k, was determined by linear regression of the natural logarithm of the remaining percentage of the parent drug vs. incubation time curve.
(§10) The in vitro half-life (in vitro t1/2) was determined from the slope value:
(§11) Conversion of the in vitro t1/2 (in min) into the in vitro intrinsic clearance (in vitro CLint, in μL/min/mg proteins) was done using the following equation (mean of duplicate determinations): […]
(§12) The control compound (verapamil) was included in the assay. Any value of the compounds that was not within the specified limits will be rejected and the experiment will be repeated.

[3] = Liver microsomes metabolic stability assay, rat; assay type: in vitro ADME; details: male, rat liver microsomes 0.5 mg/mL, 37° C.
Method: as §1, §2, §3, §4, §5, §6, §7, §8, §9, §10, §11, §12

[4] = Liver microsomes metabolic stability assay, mouse; assay type: in vitro ADME; details: male, mouse liver microsomes 0.5 mg/mL, 37° C.
Method: as §1, §2, §3, §4, §5, §6, §7, §8, §9, §10, §11, §12

IC50 ([1]; numeric values) [nM]	IC50 ([1]; class symbols) [nM]	SMILES	other results
–	≤ 10	COC(=O)c1c(F)ccc2nc(-c3cnn4ccc(N5CCC[C@@H]5c5cc(F)ccc5F)nc34)[nH]c12 [Compound 158, methyl (R)-2-(5-(2-(2,5-difluorophenyl)pyrrolidin-1-yl)pyrazolo[1,5-a]pyrimidin-3-yl)-6-fluoro-1H-benzo[d]imidazole-7-carboxylate]	–
–	10 to 50	C[C@](O)(c1nnc(-c2cnn3ccc(N4CCC[C@@H]4c4cc(F)ccc4F)nc23)[nH]1)C(F)(F)F [Compound 25, (S)-2-(5-(5-((R)-2-(2,5-difluorophenyl)pyrrolidin-1-yl)pyrazolo[1,5-a]pyrimidin-3-yl)-4H-1,2,4-triazol-3-yl)-1,1,1-trifluoropropan-2-ol]	–
–	> 50	Fc1ccc(F)c([C@H]2CCCN2c2ccn3ncc(-c4nc5ccc(N6CCN7CCC[C@@H]7C6)cc5[nH]4)c3n2)c1 [Compound 62, 5-((R)-2-(2,5-difluorophenyl)pyrrolidin-1-yl)-3-(6-((R)-hexahydropyrrolo[1,2-a]pyrazin-2(1H)-yl)-1H-benzo[d]imidazol-2-yl)pyrazolo[1,5-a]pyrimidine]	–
–	≤ 10	Cc1cc2[nH]c(-c3cnn4ccc(N5CCC[C@@H]5c5cc(F)ccc5F)nc34)nc2cc1C#N [Compound 159, (R)-2-(5-(2-(2,5-difluorophenyl)pyrrolidin-1-yl)pyrazolo[1,5-a]pyrimidin-3-yl)-6-methyl-1H-benzo[d]imidazole-5-carbonitrile]	–
2.65	–	Fc1ccc(F)c([C@H]2CCCN2c2ccn3ncc(-c4nnc(-c5ccc6[nH]ccc6c5)[nH]4)c3n2)c1 [Compound 50, (R)-3-(5-(1H-indol-5-yl)-4H-1,2,4-triazol-3-yl)-5-(2-(2,5-difluorophenyl)pyrrolidin-1-yl)pyrazolo[1,5-a]pyrimidine]	–
–	> 50	Fc1ccc(F)c([C@H]2CCCN2c2ccn3ncc(-c4nc5cnc(N6CCOCC6)cc5[nH]4)c3n2)c1 [Compound 64, (R)-4-(2-(5-(2-(2,5-difluorophenyl)pyrrolidin-1-yl)pyrazolo[1,5-a]pyrimidin-3-yl)-1H-imidazo[4,5-c]pyridin-6-yl)morpholine]	–
–	≤ 10	Cc1ccc2nc(-c3cnn4ccc(N5CCC[C@@H]5c5cc(F)ccc5F)nc34)[nH]c2n1 [Compound 106, (R)-2-(5-(2-(2,5-difluorophenyl)pyrrolidin-1-yl)pyrazolo[1,5-a]pyrimidin-3-yl)-5-methyl-3H-imidazo[4,5-b]pyridine]	–
1.2	–	Fc1ccc(F)c([C@H]2CCCN2c2ccn3ncc(-c4nnc(-c5ccc6ncccc6c5)[nH]4)c3n2)c1 [Compound 56, (R)-6-(5-(5-(2-(2,5-difluorophenyl)pyrrolidin-1-yl)pyrazolo[1,5-a]pyrimidin-3-yl)-4H-1,2,4-triazol-3-yl)quinoline]	–
–	> 50	COC(=O)Oc1cc2nc(-c3cnn4ccc(N5CCC[C@@H]5c5cc(F)ccc5F)nc34)[nH]c2cc1OC(=O)OC [Compound 115, (R)-2-(5-(2-(2,5-difluorophenyl)pyrrolidin-1-yl)pyrazolo[1,5-a]pyrimidin-3-yl)-1H-benzo[d]imidazole-5,6-diyl dimethyl bis(carbonate)]	–
1.66	–	OCC(F)c1nnc(-c2cnn3ccc(N4CCC[C@@H]4c4cc(F)ccc4F)nc23)[nH]1 (stereo partly drawn) [Compound 52, 2-(5-(5-((R)-2-(2,5-difluorophenyl)pyrrolidin-1-yl)pyrazolo[1,5-a]pyrimidin-3-yl)-4H-1,2,4-triazol-3-yl)-2-fluoroethan-1-ol]	–
–	≤ 10	CNc1cc2[nH]c(-c3cnn4ccc(N5CCC[C@@H]5c5cc(F)ccc5F)nc34)nc2cc1C#N [Compound 142, (R)-2-(5-(2-(2,5-difluorophenyl)pyrrolidin-1-yl)pyrazolo[1,5-a]pyrimidin-3-yl)-6-(methylamino)-1H-benzo[d]imidazole-5-carbonitrile]	–
–	≤ 10	N#Cc1cc2nc(-c3cnn4ccc(N5CCC[C@@H]5c5cc(F)ccc5F)nc34)[nH]c2cc1C(=O)O [Compound 153, (R)-5-cyano-2-(5-(2-(2,5-difluorophenyl)pyrrolidin-1-yl)pyrazolo[1,5-a]pyrimidin-3-yl)-1H-benzo[d]imidazole-6-carboxylic acid]	–

Continued, compound first:

SMILES	IC50 ([1]; numeric values) [nM]	IC50 ([1]; class symbols) [nM]	other results
Fc1ccc(F)c([C@H]2CCCN2c2ccn3ncc(-c4nnc(-c5ccc(N6CCNCC6)cc5)[nH]4)c3n2)c1 [Compound 40, (R)-5-(2-(2,5-difluorophenyl)pyrrolidin-1-yl)-3-(5-(4-(piperazin-1-yl)phenyl)-4H-1,2,4-triazol-3-yl)pyrazolo[1,5-a]pyrimidine]	1.56	–	microsomal CLint at 2 μM [2]: 3.2 µL/min/mg; half-life at 2 μM ([2]; read-out: t1/2 Human): 7.22 h; microsomal CLint at 2 μM [3]: 4.6 µL/min/mg; half-life at 2 μM ([3]; read-out: t1/2 Rat): 5.02 h; microsomal CLint at 2 μM [4]: 12.4 µL/min/mg; half-life at 2 μM ([4]; read-out: t1/2 Mouse): 1.86 h
OC1CC[C@H](c2nnc(-c3cnn4ccc(N5CCC[C@@H]5c5cc(F)ccc5F)nc34)[nH]2)C1 (stereo partly drawn) [Compound 19, (3S)-3-(5-(5-((R)-2-(2,5-difluorophenyl)pyrrolidin-1-yl)pyrazolo[1,5-a]pyrimidin-3-yl)-4H-1,2,4-triazol-3-yl)cyclopentan-1-ol]	–	≤ 10	–
COc1cc2nc(-c3cnn4ccc(N5CCC[C@@H]5c5cc(F)ccc5F)nc34)cn2cc1OC [Compound 199, (R)-5-(2-(2,5-difluorophenyl)pyrrolidin-1-yl)-3-(6,7-dimethoxyimidazo[1,2-a]pyridin-2-yl)pyrazolo[1,5-a]pyrimidine]	–	10 to 50	–
CC(C)C[C@H](N)C(=O)O[C@@H](C)c1nnc(-c2cnn3ccc(N4CCC[C@@H]4c4cc(F)ccc4F)nc23)[nH]1 [Compound 51, (S)-1-(5-(5-((R)-2-(2,5-difluorophenyl)pyrrolidin-1-yl)pyrazolo[1,5-a]pyrimidin-3-yl)-4H-1,2,4-triazol-3-yl)ethyl L-leucinate hydrochloride]	3	–	–
Fc1ccc(F)c([C@H]2CCCN2c2ccn3ncc(-c4nc5cc(O[C@@H]6CCOC6)c(O[C@H]6CCOC6)cc5[nH]4)c3n2)c1 [Compound 118, 5-((R)-2-(2,5-difluorophenyl)pyrrolidin-1-yl)-3-(5-(((R)-tetrahydrofuran-3-yl)oxy)-6-(((S)-tetrahydrofuran-3-yl)oxy)-1H-benzo[d]imidazol-2-yl)pyrazolo[1,5-a]pyrimidine]	–	10 to 50	–
Fc1ccc(F)c([C@H]2CCCN2c2ccn3ncc(-c4nc5c(s4)CCNC5)c3n2)c1 [Compound 189, (R)-2-(5-(2-(2,5-difluorophenyl)pyrrolidin-1-yl)pyrazolo[1,5-a]pyrimidin-3-yl)-4,5,6,7-tetrahydrothiazolo[4,5-c]pyridine]	–	≤ 10	–
OCC12CC(c3nnc(-c4cnn5ccc(N6CCC[C@@H]6c6cc(F)ccc6F)nc45)[nH]3)(C1)C2 [Compound 43, (R)-(3-(5-(5-(2-(2,5-difluorophenyl)pyrrolidin-1-yl)pyrazolo[1,5-a]pyrimidin-3-yl)-4H-1,2,4-triazol-3-yl)bicyclo[1.1.1]pentan-1-yl)methanol]	2.51	–	–
Cn1c(-c2ccnc(N3CCC(O)CC3)c2)nnc1-c1cnn2ccc(N3CCC[C@@H]3c3cc(F)ccc3F)nc12 [Compound 21, (R)-1-(4-(5-(5-(2-(2,5-difluorophenyl)pyrrolidin-1-yl)pyrazolo[1,5-a]pyrimidin-3-yl)-4-methyl-4H-1,2,4-triazol-3-yl)pyridin-2-yl)piperidin-4-ol]	–	> 50	–
NC12CC(c3nnc(-c4cnn5ccc(N6CCC[C@@H]6c6cc(F)ccc6F)nc45)[nH]3)(C1)C2 [Compound 44, (R)-3-(5-(5-(2-(2,5-difluorophenyl)pyrrolidin-1-yl)pyrazolo[1,5-a]pyrimidin-3-yl)-4H-1,2,4-triazol-3-yl)bicyclo[1.1.1]pentan-1-amine]	5.28	–	–
O[C@H]1CC[C@@H](c2nnc(-c3cnn4ccc(N5CCC[C@@H]5c5cc(F)ccc5F)nc34)[nH]2)CC1 [Compound 5, (1S,4s)-4-(5-(5-((R)-2-(2,5-difluorophenyl)pyrrolidin-1-yl)pyrazolo[1,5-a]pyrimidin-3-yl)-4H-1,2,4-triazol-3-yl)cyclohexan-1-ol]	1.8	–	–
